According to article PMC10447463, “Data-mining unveils structure–property–activity correlation of viral infectivity enhancing self-assembling peptides” (Nature Communications, 2023):
Several values for one entry are separate records, joined by “and”; a condition that tells them apart may be missing. Equal values may be shown once. Read-outs that look alike come from different tables or passages of the source.

Key:
[1] = Turbidity, derived count rate of scattered light; format: physicochemical; conditions: for Log Count Rate: log of derived count rate
Procedure, shortened: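 One-day room-temperature aggregation at 1 mg/mL in PBS (pH 7.4) preceded measurement; samples then went into 1 mM KCl. Triplicates per sample, two independent experiments averaged.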

[2] = β-sheet content by ATR-FT-IR; format: physicochemical
Procedure, shortened: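 β-sheet content came from ATR FT-IR spectra of lyophilized 1 mg/mL nanofibril solution (64 scans, 2 cm^-1 resolution). Conversion was measured by separating free monomer with a 3 kDa cutoff filter, then comparing fluorescamine fluorescence (ex 365/em 470 nm, 20 min RT) of filtrate versus unfiltered sample, in triplicate.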

[3] = system: HIV-1 infection of TZM-bl cells; test: HIV-1 infectivity enhancement assay, β-galactosidase luminescence; format: cell-based; conditions: for Rel-to EFC / n-fold to virus: Fig S8 panels B, D; for Log10 Infection Rel EF-C: HIV-1 infection of TZM-bl cells
[4] = Zeta-potential measurement; format: physicochemical; conditions: for Zeta-pot. / mV: zeta potential of peptide, Fig S15 source data
Procedure, shortened: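 Samples: 1 mg/mL in PBS pH 7.4 (from DMSO), 1 d at RT, then diluted in 1 mM KCl immediately before measurement. Triplicates, two independent runs averaged.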

[5] = Fig S8 panels A, C, asymmetric log errors
[6] = Fig S8 panels B, D, turbidity, derived count rate of scattered light
[7] = category 1 or 0 from count rate, key not given
[8] = derived count rate of scattered light, mean, std deviation in next column
[9] = derived count rate of scattered light, mean, std deviation in separate column
[10] = Feb2021, 1.3 µM value relative to virus only (0 µM)
[11] = Feb2021, Log10 of infectivity relative to EF-C
[12] = Feb2021, n-fold enhancement relative to EF-C
[13] = Feb2021, n-fold infectivity relative to EF-C
[14] = Feb2021, unrounded values of the 1.3 µM column
[15] = Feb2021 run, infectivity n-fold relative to virus alone
[16] = Feb2021 run, log10 of infectivity relative to EF-C
[17] = Feb2021 run, n-fold infectivity relative to EF-C
[18] = infectivity enhancement relative to EF-C
[19] = infectivity n-fold relative to virus alone
[20] = infectivity class (low / medium / high) of each library peptide, main list in c1-c6, same classes repeated in sub-lists of sequences containing the hydrophobicity/charge patterns P+,H0,P+,H0,P0,H0,P0, P+,H0,P0,H0,P0,H0,P0, P+,H0,P0,H0
[21] = infectivity class (low / medium / high) of the peptide in the sequence-pattern analysis, Fig. S22-A4, class limits not given
[22] = log10 of HIV-1 infection of TZM-bl cells relative to EF-C, Fig S15 source data, asymmetric std dev errors
[23] = derived count rate from zeta measurement, mean
[24] = derived count rate of scattered light
[25] = Feb2021, figures match the 1.3 µM column
[26] = Feb2021, infectivity relative to virus only
[27] = infectivity enhancement relative to EF-C (=1), Feb2021 run
[28] = infectivity n-fold relative to virus only, Feb2021 run
[29] = log10 of infectivity relative to EF-C, Feb2021 run
[30] = category 1 or 0 derived from the count rate, key not given
[31] = Feb2021, infectivity enhancement relative to EF-C
[32] = category derived from the zeta potential

| Substance | Log Count Rate [1, 5] | Log Count Rate ([1]; Fig S8 panels B, D) | Count Rate [1, 6] | Zeta Count Rate Category ([1]; category 1/0, no key printed) | Zeta Count Rate Category [1, 7] | Zeta Count Rate / kcps [1, 8] [kcps] | Zeta Count Rate / kcps [1, 9] [kcps] | FTIR ß-sheet content/ % [2] [%] | FTIR ß-sheet content/ % ([2]; ATR-FT-IR) | n-fold to virus (Feb2021) [3, 10] | Log10 of Rel to EFC (Feb2021) [3, 11] | Rel-to EFC (Feb-2021) [3, 12] | Rel-to EFC (Feb-2021) [3, 13] | infectivity [3, 20] | Log10 Inf. rel. to EF-C [3, 22] | Zeta category ( +1 = if > 4 mV;-1 = if < -4 mV; 0 = -4mV to 4 mV) [4] | Zeta category ( +1 = if > 4 mV;-1 = if < -4 mV; 0 = -4mV to 4 mV) ([4]; category from zeta potential) | Zeta Pot. / mV ([4]; mean, Std Zeta in next column) [mV] | Zeta Pot. / mV ([4]; mean, Std in separate column) [mV] | Zeta-pot. / mV [4] [mV] | also measured |
| --- | --- | --- | --- | --- | --- | --- | --- | --- | --- | --- | --- | --- | --- | --- | --- | --- | --- | --- | --- | --- | --- |
| QCKIKIQINMWQ [EF-C opt] | 3.918 | 3.918 | 8271.27 | 1 | 1 | 8271 | 8271 | 48.38 | 48% and 48.38% | 43.54 | 0.01546 | 1.036 | 1.036 | high | 0.01546 | 1 (+1 = if > 4 mV) | 1 (+1 = if > 4 mV) | 11.73 | 11.73 | 11.73 | Absolute Infectivity / RLU /s (Feb2021) [3, 14]: 21221.11111 RLU /s; n-fold to virus (Feb2021) [3, 15]: 43.54; Log10 of Rel to EFC (Feb2021) [3, 16]: 0.01546; Rel-to EFC (Feb-2021) [3, 17]: 1.036; Rel-to EFC [3, 18]: 1.036; n-fold to virus [3, 19]: 43.54; infectivity [3, 21]: high |
| KIKQIINMWQ [JG2] | 2.789 | 2.789 | 615.53 |  | 1 | 615.5 |  | 40.68 | 41% and 40.68% |  | -0.4604 | 0.3464 | 0.3464 | medium | -0.4604 | 1 (+1 = if > 4 mV) | 1 (+1 = if > 4 mV) | 15.37 | 15.37 | 15.37 | Zeta Count Rate Category ([1]; category 1 / 0, no key given): 1; Zeta Count Rate / kcps [1, 23]: 615.5 kcps; Zeta Count Rate / kcps [1, 24]: 615.5 kcps; Zeta Count Rate Category ([1]; key not given): 1; Absolute Infectivity / RLU /s (Feb2021) [3, 25]: 9363 RLU /s; n-fold to virus (Feb2021) [3, 26]: 14.55; Rel-to EFC [3, 18]: 0.3464; n-fold to virus [3, 19]: 14.5544; Rel-to EFC (Feb-2021) [3, 27]: 0.3464; n-fold to virus (Feb2021) [3, 28]: 14.55; Log10 of Rel to EFC (Feb2021) [3, 29]: -0.4604; Zeta Pot. / mV [4]: 15.37 mV; Zeta category ( +1 = if > 4 mV;-1 = if < -4 mV; 0 = -4mV to 4 mV) ([4]; FigS26): 1 (+1 = if > 4 mV) |
| CEFEFQFNMWQ [TM140] |  |  |  | 1 |  | 186.3 |  |  | 51% and 51.48% | 5.923 | -0.8509 |  | 0.141 | medium | -0.8509 | -1 (-1 = if < -4 mV) |  | -34.23 |  | -34.23 | Zeta Count Rate Category [1, 30]: 1; Rel-to EFC (Feb-2021) [3, 31]: 0.141; Absolute Infectivity / RLU /s (Feb2021) [3, 14]: 2517 RLU /s; Zeta category ( +1 = if > 4 mV;-1 = if < -4 mV; 0 = -4mV to 4 mV) [4, 32]: -1 (-1 = if < -4 mV) |
| CRFRVPF [CN8] |  |  |  | 0 |  | 73.97 |  |  | 11.43% | 0.837 |  |  | 0.01992 | low | -1.701 | 1 (+1 = if > 4 mV) |  | 4.413 |  | 4.413 | Log10 of Rel to EFC (Feb2021) ([3]; Feb2021, log10 of infectivity relative to EF-C): -1.701; Absolute Infectivity / RLU /s (Feb2021) [3, 14]: 376.7 RLU /s |
| KFKFQFNMW |  |  |  |  |  |  |  |  |  |  |  |  |  |  |  |  |  |  |  |  | Log10 Count Rate ([1]; Log10 of derived count rate of scattered light (turbidity)): 2.785; Count Rate / kcps ([1]; derived count rate of scattered light at 633 nm, 173°, from zeta-potential measurement, 0.1 mg/mL in 1 mM KCl after 1 d at 1 mg/mL in PBS, turbidity / microscopic aggregation, mean of triplicate): 610 kcps; Log10 Count Rate ([1]; turbidity, Log10 of derived count rate of scattered light, Figure 3A source data): 2.785; Log10 Count Rate ([1]; turbidity, log10 of derived count rate of scattered light): 2.785; b -sheet / % ([2]; Fig. S7 panel A, β-sheet content by ATR-FT-IR): 38.191%; Rel-EFC ([3]; 1.3 µM peptide, infection relative to EF-C (QCKIKQIINMWQ = 1)): 0,45; Log10 Infection Rel EFC ([3]; 1.3 µM peptide, log10 of infection relative to EF-C): -0,35; Log Infectivity ([3]; Fig. S7 panel A (plotted against β-sheet content), Log10 infection relative to EF-C, TZM-bl cells, asymmetric std dev errors): -0.3503; Log10 Infection Rel EF-C ([3]; Log10 of infection rate relative to EF-C, Figure 3A source data): -0.35; Log10 Infection Rel EF-C ([3]; infection rate relative to EF-C, log10, data of Figure 2D): -0.3503; Log10 Infection Rel EF-C ([3]; infection rate relative to EF-C, log10, source data of Figure 2C): -0.3503; Log10 of Rel to EFC (Feb2021) ([3]; Log10 of infection relative to EF-C, all peptides of FigS16): -0.35; Abs. Inf. ([3]; absolute infection signal, HIV-1 on TZM-bl cells, β-galactosidase luminescence): 6690; Log10 Inf. rel. to EF-C ([3]; log10 of HIV-1 infection of TZM-bl cells relative to EF-C (EF-C = 0)): -0.3503; Zeta-Pot. [4]: 22.6; Zeta-Potential / mV ([4]; zeta-potential of peptide, source data of Figure 2C): 16.22 mV; Zeta-Potential / mV ([4]; zeta-potential of the peptide assemblies, mean, Figure 3A source data): 22.6 mV |
| CKIKQII [MG4a] | 1.873 | 1.873 | 74.6 |  | 0 | 74.6 | 74.6 | 25 | 25% |  | -1.379 | 0.04182 | 0.04182 |  | -1.379 | 0 (0 = -4mV to 4 mV) | 0 (0 = -4mV to 4 mV) | -3.83 | -3.83 | -3.83 | Zeta Count Rate Category ([1]; category 1 / 0, no key given): 0; Zeta Count Rate / kcps [1, 23]: 74.6 kcps; Zeta Count Rate / kcps [1, 24]: 74.6 kcps; Zeta Count Rate Category ([1]; key not given): 0; Absolute Infectivity / RLU /s (Feb2021) [3, 25]: 796.7 RLU /s; n-fold to virus (Feb2021) [3, 26]: 1.757; n-fold to virus (Feb2021) [3, 15]: 1.757; Log10 of Rel to EFC (Feb2021) [3, 16]: -1.379; Rel-to EFC (Feb-2021) [3, 17]: 0.04182; Rel-to EFC [3, 18]: 0.04182; n-fold to virus [3, 19]: 1.757; infectivity [3, 21]: low; Rel-to EFC (Feb-2021) [3, 27]: 0.04182; n-fold to virus (Feb2021) [3, 28]: 1.757; Log10 of Rel to EFC (Feb2021) [3, 29]: -1.379; Zeta Pot. / mV [4]: -3.83 mV |
| KFKFQFW [TM71] |  |  |  |  |  | 121.9 | 121.9 |  | 0% |  | -0.7899 |  | 0.1622 | medium | -0.7899 | 1 (+1 = if > 4 mV) |  | 6.49 | 6.49 | 6.49 | Zeta Count Rate Category ([1]; category 1 / 0, no key given): 1; Zeta Count Rate Category [1, 30]: 1; Zeta Count Rate / kcps [1, 24]: 121.9 kcps; Absolute Infectivity / RLU /s (Feb2021) [3, 25]: 4953 RLU /s; Rel-to EFC (Feb-2021) [3, 31]: 0.1622; n-fold to virus (Feb2021) [3, 26]: 6.817; n-fold to virus (Feb2021) [3, 15]: 6.817; Log10 of Rel to EFC (Feb2021) [3, 16]: -0.7899; Rel-to EFC (Feb-2021) [3, 17]: 0.1622; Zeta Pot. / mV [4]: 6.49 mV; Zeta category ( +1 = if > 4 mV;-1 = if < -4 mV; 0 = -4mV to 4 mV) [4, 32]: 1 (+1 = if > 4 mV) |
| KIKQIINM [JGA2] |  |  |  |  | 1 | 2481 |  | 44 | 44% |  | -0.3458 | 0.451 |  | medium | -0.3458 | 1 (+1 = if > 4 mV) | 1 (+1 = if > 4 mV) | 16.3 | 16.3 | 16.3 | Zeta Count Rate / kcps [1, 23]: 2481 kcps; Zeta Count Rate Category ([1]; key not given): 1; Rel-to EFC (Feb-2021) [3, 27]: 0.451; n-fold to virus (Feb2021) [3, 28]: 18.95; Log10 of Rel to EFC (Feb2021) [3, 29]: -0.3458 |
